The target of this assay is Tlp11 (CcrG, Campylobacter ChemoReceptor for Galactose). Nature of the assay: SPR (Biacore); STD-NMR. Format: binding, Campylobacter jejuni.

The source of these data is publication PMC5080441, “A direct-sensing galactose chemoreceptor recently evolved in invasive strains of Campylobacter jejuni” (Nature Communications, 2016).

pKd: −log10 of the molar value.

The pKd is the negative decadic logarithm of the Kd, by convention in mol/L. Higher therefore signals a small Kd. For `OC[C@H]1OC(O)[C@H](O)[C@@H](O)[C@H]1O` (stereo partly shown) [galactose], the negative logarithm of the Kd (pKd) was 4.77.
